Measurements from patent US10577322B2, “5-methoxytryptophan and its derivatives and uses thereof” (National Health Research Institutes, priority 2015, dated 2020).

Tests used:
A549 subcutaneous tumor = assay: Tumor xenograft experiment (A549 s.c. in SCID mice); type: in vivo; details: 100 mg/kg intraperitoneal twice weekly; for subcutaneous tumor volume: 7 weeks
Description: Six-week-old male CB-17 SCID mice, purchased from BioLASCO, were housed in a daily cycle of 12-h light and 12-h darkness and pathogen-free conditions at 26° C. at the Animal Center of the National Health Research Institutes. A549-luc-C8 cells (Caliper Life Sciences), cultured in RPMI-1640 supplemented with 10% FBS, were pretreated with 100 μM 5-MTP, 100 μM 5-MTPE or vehicle for 5 h and were inoculated into the flank of mice subcutaneously (s.c.) (5×10^6 cells/mouse). The 5-MTP-, or 5-MTPE-treated mice (n=10) were injected with 100 mg 5-MTP or 5-MTPE /kg body weight intraperitoneally twice weekly. The vehicle group (n=10) was injected with vehicle (0.033 N HCl in RPMI medium, neutralized with NaOH) twice weekly. The size of s.c. tumors were caliper-measured twice weekly. The tumor volume was calculated according to the formula of length×width×width/2. The tumor growth was also monitored weekly by an IVIS spectrum imaging system. Mice were euthanized at day 52. Subcutaneous tumors and lungs were removed and fixed with 10% Formalin. Nodules on each lobe of the lungs were counted. Histology of the nodules was examined under microscopy by tissue section and H&E staining. The animals' care was in accordance with institutional guidelines and the protocol of in vivo experiments was approved by the Institutional Animal Care and Utilization Committee of the National Health Research Institutes.
In addition, A549 (5×10^6 cells) was injected subcutaneously into the flank of SCID-Beige mice. 10 mice each received intraperitoneal injection of 5-MTP (100 mg/kg), 5-MTPE (100 mg/kg) or vehicle twice weekly. Caliper measurement of the subcutaneous tumor volume periodically for 7 weeks. […] The average tumor volume at 7-week in the 5-MTP treated group was ˜50% of that in the control group.

LPS-induced endotoxemia = type: in vivo
Description: C57BL/6 mice (6-8 wks old) were treated intraperitoneally with saline or with different concentrations of 5-MTP (23.4 or 100 mg/kg) for 30 min before intraperitoneal administration of LPS (60 mg/kg). Animals were monitored for survival and other clinical signs including ruffled fur, lethargy, diarrhea, and body weight loss. Some animals were sacrificed at different times after LPS injection. Blood samples, peritoneal exudates, lungs, and spleens were collected. All mouse experiments were approved by the institutional Animal Care and Use Committee, National Health Research Institutes.
Since suppression of 5-MTP by endotoxemia could contribute to uncontrolled macrophage overproduction of proinflammatory cytokines and mediators, we determined whether exogenous 5-MTP administration rescues mice from LPS-induced systemic inflammation, organ damage and mortality. Mice were injected with saline, 5-MTP (23.4 mg/kg), 5-MTPE (25 mg/kg) or vehicle for 30 min, followed by LPS (60 mg/kg) (saline, n=25; 5-MTP, n=7; 5-MTPE, n=7; LPS, n=30; LPS+5-MTP, n=25; LPS+5-MTPE, n=25). Survival was monitored during the next 72 h. *P<0.001 compared to LPS treatment.

CLP = assay: Cecal ligation and puncture (CLP) model, survival; type: in vivo, mice
Source text: To confirm the protective effect of 5-MTP in endotoxemia, we used cecal ligation and puncture (CLP) model in mice. 5-MTP-afforded protection was also observed in mice challenged with CLP.

BALF total cell number = assay: Cell number in bronchoalveolar lavage fluid (trypan blue exclusion); type: in vivo, mice; details: 24 h after LPS
Description: Furthermore, bronchoalveolar lavage fluid (BALF) was isolated from mice treated with LPS with or without various concentrations of 5-MTP for 24 h. Cell number in BALF was determined by trypan blue exclusion assay.

ERK½ = assay: LPS-induced ERK½ phosphorylation in RAW264.7 cells (immunoblot); type: cell-based, mouse; details: LPS 4 h
Description: Cellular protein were resolved by 5% to 20% SDS-PAGE and transferred to nitrocellulose membranes and blotted with specific antibodies as previously described (Lee, G. L., et al.).
After pretreating RAW264.7 cells with different concentrations of 5-MTP for 30 min, cells were stimulated with LPS for 4 h. Cell lysates were immunoblotted with antibodies for p38, phospho-p38 (p-p38), ERK½, phospho-ERK½ (p-ERK½) or β-actin. […] Activation of p38 MAPK in macrophages is required for TLR-induced NF-κB activation, which is one of the key factors affecting TLR-induced cytokine production. Thus, we evaluated the effect of 5-MTP on LPS-induced. NF-κB activation.

NF-κB p65 = assay: Phospho-NF-κB p65 (Ser536) in RAW264.7 cells (immunoblot); type: cell-based, mouse; details: LPS 4 h
Description: Furthermore, after pretreating RAW264.7 cells with different concentrations of 5-MTP for 30 min, cells were stimulated with. LPS for 4 h. NF-κB p65, phospho-NF-κB p65 (p-p65) (Ser536) or β-actin was determined by immunoblotting with specific antibodies. Also, peritoneal macrophages were treated with LPS with or without 5-MTP (50 μM) for the indicated time. Phospho-p65 in the lysates was analyzed by an ELISA kit. The results are shown in FIG. 10D, in which the error bars denote mean ±SD (n=3). According to FIGS. 10C-10D, 5-MTP decreased LPS-induced phosphorylation of NF-κB p65 not only in RAW264.7 cells (FIG. 10C) but also in peritoneal macrophages (FIG. 10D).

RAW264.7 cells = assay: Cell viability by MTT assay; type: cell-based, mouse; details: 24 h
Description: Furthermore, RAW264.7 cells were treated with different concentrations of 5-MTP or 5-MTPE for 24 h. Cell viability was determined by MTT assay. In another experiment, after pretreating RAW264.7 cells with different concentrations of 5-MTP or 5-MTPE for 30 min, cells were stimulated with LPS for 24 h. IL-6 level in culture supernatants was measured by ELISA.

[1] = 5-MTP 23.4 mg/kg 30 min before LPS 60 mg/kg

SMILES | average tumor volume at 7-week, of that in the control group (A549 subcutaneous tumor) [%] | subcutaneous tumor volume (A549 subcutaneous tumor) | endotoxemic mice died at day 3 (LPS-induced endotoxemia; [1]) [%] | mice died at day 1 (LPS-induced endotoxemia; [1]) | duration of improved survival (CLP) | survival at day 2 (CLP; 5-MTP 30 mins after surgery) [%] | total cell number in BALF (BALF total cell number) | phosphorylation of ERK½ (ERK½) | LPS-induced phosphorylation of NF-κB p65 (NF-κB p65) | cell viability (MTT) (RAW264.7 cells) | protective capacity in LPS-induced lethal endotoxemia (LPS-induced endotoxemia; 5-MTPE 25 mg/kg 30 min before LPS 60 mg/kg, 72 h) [%]
COc1ccc2[nH]cc(C[C@H](N)C(=O)O)c2c1 [5-MTP, 5-methoxytryptophan] | ~50 | suppressed tumor volume in a time-dependent manner | 20 | none | maintained up to day 6 | 44.4 | reduced by 5-MTP in a dose-dependent manner | but not that of ERK½ | decreased | – | –
COC(=O)C(N)Cc1c[nH]c2ccc(OC)cc12 (stereo not drawn) [5-MTPE, ester-5-MTP] | – | suppressed tumor volume in a time-dependent manner | – | – | – | – | – | – | – | not cell viability | 100
